# How the values were obtained:
# Assay type in all cases: cell-based
# [1] = target: T1, TRPV1 (Rattus norvegicus, UniProt O35433); test: TRPV1-mediated calcium flux (Fluo-4) in HEK cells inducibly expressing TRPV1; settings: for calcium flux (Fluo-4 RFU) in TRPV1-expressing HEK cells: stimulus applied to cell culture medium, mixtures at Table 1 concentrations; for suppression of later calcium response by pre-incubation (desensitization): 24 hours pre-incubation with the same compound; for AUC of calcium response curve, first application: AUC (between 20-300 nM), compound first introduced to TRPV1-expressing cells; for concentration inducing calcium influx to a similar degree (by AUC): AUC between 20 and 300 nM of calcium response curves; for AUC of calcium response after 24 hours incubation with the same compound: cells incubated with compound for 24 hours, then re-stimulated
# T1 construct: FLAG; expressed in transfected cells; host or cells: TRex HEK293 (HEK293 stably carrying pcDNA6TR), induced with tetracycline
# Method: The HEK293 cell line was stably transfected with the pcDNA6TR (Invitrogen, CA) plasmid (encoding the tetracycline-sensitive TREx repressor protein), and was maintained in DMEM+10% fetal bovine serum (inactivated at 55° C. for 1 h)+2 mM glutamine in humidified 5% CO2 atmosphere at 37° C. Selection pressure on the TRex 293 cells was maintained by continuous culture in 10 μg/ml Blasticidin (Sigma, St Louis, Mo.).
# For production of TRex HEK293 cells with inducible expression of TRPV1, parental cells were electroporated with the rat TRPV1 cDNA in the pcDNA4TO vector and clonal cell lines were selected by limiting dilution in the presence of 400 μg/ml zeocin (Invitrogen, CA). TRPV1 expression was induced using 1 μg/ml tetracycline for 16 h at 37° C.
# (§1) Calcium responses mediated by TRPV1 were tested by calcium assay in the cell culture system. Cells were washed and incubated with 0.2 μM fluo-4 acetoxymethyl ester (“Fluo-4”) for 30 minutes at 37° C. in a standard modified Ringer's solution of the following composition (in mM): NaCl 145, KCl 2.8, CsCl 10, CaCl2 10, MgCl2 2, glucose 10, Hepes.NaOH 10, pH 7.4, 330 mOsm. Cells were transferred to 96-well plates at 50,000 cells/well and stimulated as indicated. Calcium signals were acquired using a Flexstation 3 (Molecular Devices, Sunnydale, USA). Data was analyzed using SoftMax® Pro 5 (Molecular Devices). Where indicated, nominally calcium-free external conditions were achieved by the preparation of 0 mM CaCl2 Ringer solution containing 1 mM EGTA. Where indicated, capsaicin (10 μM) and ionomycin (500 nM) were used as positive controls to induce calcium responses. Capsazepine (10 μM) was used where indicated to specifically antagonize TRPV1-mediated calcium responses. Where indicated, baseline traces (no stimulation, NS) were subtracted. Where indicated, vehicle alone traces were subtracted. Where indicated, vehicle comprising various diluents matched to corresponding mixtures was used as a negative control.
# [2] = test system: HEK wild type cells; test: Calcium flux (Fluo-4) in wild-type HEK cells without TRPV1 construct; settings: same stimulus conditions as TRPV1-expressing cells
# Method: as §1
# [3] = target: T1, TRPV1; test: Whole-cell patch clamp in single HEK293 cells overexpressing TRPV1; settings: for inward current: average of 6 independent experiments; for outward current relative to inward current: then 1 μM capsaicin
# Method: HEK293 cells were kept in sodium-based extracellular Ringer's solution containing 140 mM NaCl, 1 mM CaCl2, 2 mM MgCl2, 2.8 mM KCl, 11 mM glucose, and 10 mM HEPES-NaOH, pH 7.2 and osmolarity 300 mOsmol. The cells' cytosol was perfused with intracellular patch pipette solution containing 140 mM Cs-glutamate, 8 mM NaCl, 1 mM MgCl2, 3 mM MgATP, and 10 mM HEPES-CsOH. The standard internal Ca^2+ concentration was buffered to 180 nM with 4 mM Ca and 10 mM BAPTA. The level of free unbuffered Ca was adjusted using the calculator provided with WebMaxC (http://www.stanford.edu/˜cpatton/webmaxcS.htm). The pH of the final solution was adjusted to pH 7.2 and osmolarity measured at 300 mOsmol.
# 1 μM capsaicin was used as a positive control for TRPV1 activation. Rapid extracellular solution application and exchange was performed with the SmartSquirt delivery system (Auto-Mate Scientific, San Francisco). The system includes a ValveLink TTL interface between the electronic valves and the EPC-9 amplifier (HEKA, Lambrecht, Germany). This configuration allows for programmable solution changes via the PatchMaster software (HEKA, Lambrecht, Germany).
# Patch-clamp experiments were performed in the whole-cell configuration at 21-25° C. Patch pipettes had resistances of 2-3 MΩ. Data was acquired with PatchMaster software controlling an EPC-9 amplifier. Voltage ramps of 50 ms spanning the voltage range from −100 to 100 mV were delivered from a holding potential of 0 mV at a rate of 0.5 Hz over a period of […]. Voltages were corrected for a liquid junction potential of 10 mV. Currents were filtered at 2.9 kHz and digitized at 100 μs is intervals. Capacitive currents were determined and corrected before each voltage ramp. The development of currents for a given potential was extracted from individual ramp current records by measuring the current amplitudes at voltages of −80 mV and +80 mV. Data were analyzed with FitMaster (HEKA, Lambrecht, Germany), and IgorPro (WaveMetrics, Lake Oswego, Oreg., USA). Where applicable, statistical errors of averaged data are given as mean±s.e.m.
# [4] = pre-incubation with 500 nM ionomycin
# T1 sequence (O35433 whole entry): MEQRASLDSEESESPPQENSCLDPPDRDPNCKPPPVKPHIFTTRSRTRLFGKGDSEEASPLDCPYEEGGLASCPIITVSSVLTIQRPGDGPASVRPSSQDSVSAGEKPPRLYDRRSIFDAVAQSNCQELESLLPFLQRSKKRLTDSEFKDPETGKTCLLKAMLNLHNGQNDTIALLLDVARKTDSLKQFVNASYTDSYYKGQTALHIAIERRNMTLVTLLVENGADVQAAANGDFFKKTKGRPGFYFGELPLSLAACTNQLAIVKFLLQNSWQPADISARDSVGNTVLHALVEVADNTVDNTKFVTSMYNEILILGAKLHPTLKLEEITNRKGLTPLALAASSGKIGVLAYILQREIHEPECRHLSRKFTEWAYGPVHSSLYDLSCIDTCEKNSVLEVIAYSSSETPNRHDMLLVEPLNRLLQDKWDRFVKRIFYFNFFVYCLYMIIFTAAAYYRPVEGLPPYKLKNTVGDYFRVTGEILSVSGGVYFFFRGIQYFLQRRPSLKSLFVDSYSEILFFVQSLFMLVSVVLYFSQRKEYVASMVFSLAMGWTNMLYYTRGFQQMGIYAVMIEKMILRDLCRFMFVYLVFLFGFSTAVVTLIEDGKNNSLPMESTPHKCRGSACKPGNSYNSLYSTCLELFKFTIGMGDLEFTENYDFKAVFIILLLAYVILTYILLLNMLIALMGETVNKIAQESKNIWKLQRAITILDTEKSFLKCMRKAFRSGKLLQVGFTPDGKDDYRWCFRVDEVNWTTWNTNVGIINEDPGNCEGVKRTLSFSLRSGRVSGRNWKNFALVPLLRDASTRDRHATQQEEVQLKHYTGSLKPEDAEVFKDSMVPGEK
compound,measurement,setting,value
C=C(C)[C@@H]1CCC(C)=C[C@H]1c1c(O)cc(CCCCC)cc1O [cannabidiol],calcium flux (Fluo-4 RFU) in TRPV1-expressing HEK cells,[1],calcium flux was detected
same,calcium flux in wild-type HEK cells without TRPV1,[2],only minimal or absent
"COc1cc(CNC(=O)CCCC/C=C/C(C)C)ccc1O [capsaicin, reference compound]",suppression of later calcium response by pre-incubation (desensitization),[1],69%
same,"AUC of calcium response curve, first application",[1],124
same,concentration inducing calcium influx to a similar degree (by AUC),[1],about 30 nM
same,AUC of calcium response after 24 hours incubation with the same compound,[1],38
same,calcium flux (Fluo-4 RFU) in TRPV1-expressing HEK cells,[1],capsaicin-specific calcium fluxes
same,current induced,[3]; 1 μM capsaicin (not shown),4-10 nA
same,inward current,[3]; 1 μM capsaicin applied after myrcene,approximately 9 nA
same,outward current relative to inward current,[3]; 5 μM myrcene,at a lower amplitude than the inward current
CCCCCc1cc(O)c(C/C=C(\C)CCC=C(C)C)c(O)c1C(=O)O [cannabigerolic acid],calcium flux (Fluo-4 RFU) in TRPV1-expressing HEK cells,[1],calcium flux was detected
same,calcium flux in wild-type HEK cells without TRPV1,[2],only minimal or absent
"C[C@H](CCC(=O)O)C[C@H](C)C[C@H](C)C(=O)/C=C(\O)[C@H](C)C[C@H](C)C/C=C/[C@@H](C)[C@@H](O)[C@@H](C)[C@@H](O)C[C@@H]1CC[C@@](C)([C@H]2CC[C@@](C)([C@@H](C)O)O2)O1 [ionomycin, reference compound]","AUC of calcium response curve, first application",[1],128
same,reduction of later calcium influx in response to capsaicin,[1]; [4],38%
same,reduction of later calcium influx in response to myrcene,[1]; [4],27%
C=CC(C)(O)CCC=C(C)CCC=C(C)C (centres unmarked) [nerolidol],calcium flux (Fluo-4 RFU) in TRPV1-expressing HEK cells,[1],significant calcium flux was detected
same,calcium flux (Fluo-4 RFU) in TRPV1-expressing HEK cells,[1]; listed as Nerolidol,more modest agonist activity
C=C(C)[C@@H]1CCC(C)=C[C@H]1c1c(O)cc(CCCCC)c(C(=O)O)c1O [cannabidiolic acid],calcium flux (Fluo-4 RFU) in TRPV1-expressing HEK cells,[1],calcium flux was detected
same,calcium flux in wild-type HEK cells without TRPV1,[2],only minimal or absent
"Oc1cc2c(cc1O)CN(C(=S)NCCc1ccc(Cl)cc1)CCC2 [capsazepine, reference compound]",effect on calcium flux induced by myrcene,[1]; 10 μM capsazepine added to cells activated with 3.5 μm/ml myrcene,diminished
"C=CC(=C)CCC=C(C)C [myrcene, 7-methyl-3-methylideneocta-1,6-diene]",suppression of later calcium response by pre-incubation (desensitization),[1],52%
same,"AUC of calcium response curve, first application",[1],66
same,concentration inducing calcium influx to a similar degree (by AUC),[1],about 200 nM
same,AUC of calcium response after 24 hours incubation with the same compound,[1],32
same,"calcium-mediated fluorescence under calcium-free medium conditions, high concentration","[1]; myrcene 3.5 μg/ml, calcium-free medium",induced such increase
same,"calcium-mediated fluorescence under calcium-free medium conditions, low concentrations","[1]; myrcene 0.43, 0.875 and 1.75 μg/ml, calcium-free medium",did not cause increase of calcium-mediated fluorescence
same,calcium responses to different concentrations of myrcene,"[1]; myrcene 3.5 μm/ml, 1.75 μg/ml, 0.875 μm/ml and 0.43 μm/ml",dose-dependent
same,calcium flux (Fluo-4 RFU) in TRPV1-expressing HEK cells,[1],significant calcium flux was detected
same,calcium flux in wild-type HEK cells without TRPV1,[2],much smaller
same,outward current relative to inward current,[3]; 5 μM myrcene,at a lower amplitude than the inward current
same,inward current,"[3]; 5 μM myrcene, 1 mM Ca",approximately 0.5 nA
same,current induced,"[3]; 5 μM, 10 μM and 150 μM myrcene",0.5-2.2 nA
same,current response in individual cells to increasing myrcene,"[3]; 5 μM, 10 μM, 150 μM myrcene",dose-dependent response
same,TRPV1 channel permeation state activated,"[3]; IV relationship, State 1 vs State 2 (dilated)",primarily in State 1
CCCCCc1cc(O)c2c(c1)OC(C)(CCC=C(C)C)C=C2 (centres unmarked) [cannabichromene],calcium flux (Fluo-4 RFU) in TRPV1-expressing HEK cells,[1],calcium flux was detected
same,calcium flux in wild-type HEK cells without TRPV1,[2],only minimal or absent
C=C(C)[C@@H]1CCC(C)=C[C@H]1c1c(O)cc(CCC)cc1O [cannabidivarin],calcium flux (Fluo-4 RFU) in TRPV1-expressing HEK cells,[1],calcium flux was detected
same,calcium flux in wild-type HEK cells without TRPV1,[2],only minimal or absent

# From patent US11944593B2, “Myrcene-containing complex mixtures targeting TRPV1” (GBS GLOBAL BIOPHARMA, INC., priority 2017, dated 2024)
